The test has as its system BDF1 mice, P388 leukemia ip, median survival T/C. The test is described as follows: NCI In Vivo Anticancer Drug Screen. Data for tumor model P388 Leukemia (intraperitoneal) in B6D2F1 (BDF1) mice. The note with it: endpoint: median survival time, higher = longer survival. An outline of the steps: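 Survival ratio, drug arm over vehicle arm, in mice with a transplanted tumour.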

Where [1] appears, read: dose: 100.0 mg/kg/injection, schedule: Q01DX009 (ip), vehicle: saline with Tween-80.
Where [2] appears, read: dose: 200.0 mg/kg/injection, schedule: Q01DX009 (ip), vehicle: saline with Tween-80.
[3] abbreviates: dose: 400.0 mg/kg/injection, schedule: Q01DX009 (ip), vehicle: saline with Tween-80.
Setting [4] is: dose: 50.0 mg/kg/injection, schedule: Q01DX009 (ip), vehicle: saline with Tween-80.
[5] abbreviates: dose: 100.0 mg/kg/injection, schedule: Q04DX003 (ip), vehicle: saline with Tween-80.
The mark [6] stands for this setting: dose: 200.0 mg/kg/injection, schedule: Q04DX003 (ip), vehicle: saline with Tween-80.
[7] abbreviates: dose: 25.0 mg/kg/injection, schedule: Q01DX009 (ip), vehicle: saline with Tween-80.
The mark [8] stands for this setting: dose: 100.0 mg/kg/injection, schedule: Q01DX009 (ip), vehicle: saline.
Setting [9] is: dose: 200.0 mg/kg/injection, schedule: Q01DX009 (ip), vehicle: saline.

In PubChem BioAssay AID328 (DTP/NCI, 2004) one finds T/C data, which are given here for 14 compounds.

The structures appear in SMILES notation. Where “and” joins values, the source holds several entries; their conditions need not be identical. Equal entries are not always repeated. Toxic doses and inconclusive results are not listed.

On to `O=C(SCO)c1ccccc1`, for which the T/C by setting is: (dose: 100.0 mg/kg/injection, schedule: Q04DX003 (sc), vehicle: olive oil, sesame oil, peanut oil) 100 % of control; (dose: 200.0 mg/kg/injection, schedule: Q04DX003 (sc), vehicle: olive oil, sesame oil, peanut oil) 110 % of control; (dose: 400.0 mg/kg/injection, schedule: Q04DX003 (sc), vehicle: olive oil, sesame oil, peanut oil) 100 % of control.
Consider `Clc1ccc(/C(=C(\Br)c2ccccc2)c2ccccc2)cc1`, for which the T/C is 104 % of control and 100 % of control under setting [1]; 86 % of control and 100 % of control under setting [2]; 95 % of control and 90 % of control under setting [3].
`O=C1CSC(c2ccccc2)N1c1nccs1` (stereo not given): the T/C by setting is: under setting [4], 98 % of control; under setting [1], 91 % of control; under setting [2], 104 % of control.
`C[C@]12C=CC(=O)C=C1[C@@H](F)C[C@@H]1[C@@H]2[C@@H](O)C[C@@]2(C)[C@H]1CC[C@]2(O)C(=O)CO`: the T/C by setting is: (dose: 25.0 mg/kg/injection, schedule: Q01DX009 (ip), vehicle: Klucel (hydroxypropylcellulose) (HPC)) 104 % of control; (dose: 50.0 mg/kg/injection, schedule: Q01DX009 (ip), vehicle: Klucel (hydroxypropylcellulose) (HPC)) 96 % of control; (dose: 100.0 mg/kg/injection, schedule: Q01DX009 (ip), vehicle: Klucel (hydroxypropylcellulose) (HPC)) 91 % of control and 108 % of control; (dose: 100.0 mg/kg/injection, schedule: Q04DX003 (ip), vehicle: Klucel (hydroxypropylcellulose) (HPC)) 100 % of control; (dose: 200.0 mg/kg/injection, schedule: Q04DX003 (ip), vehicle: Klucel (hydroxypropylcellulose) (HPC)) 104 % of control; (dose: 400.0 mg/kg/injection, schedule: Q04DX003 (ip), vehicle: Klucel (hydroxypropylcellulose) (HPC)) 95 % of control.
As to `CC(=O)O.CC(=O)O.CC(=O)O.CC(=O)O.[Rh].[Rh]`, the T/C (dose: 5.56 mg/kg/injection, schedule: Q01DX009 (ip), vehicle: saline) was 100 % of control and 122 % of control; the T/C (dose: 8.33 mg/kg/injection, schedule: Q01DX009 (ip), vehicle: saline) is 100 % of control; the T/C (dose: 12.5 mg/kg/injection, schedule: Q01DX009 (ip), vehicle: saline) is 118 % of control; the T/C (dose: 18.7 mg/kg/injection, schedule: Q01DX009 (ip), vehicle: saline) was 90 % of control and 111 % of control.
For the compound `Cc1cccc2c1C(=O)OC2(C)c1cccc2ccccc12` (stereo not given), the T/C is, setting by setting: (dose: 50.0 mg/kg/injection, schedule: Q04DX003 (ip), vehicle: saline with Tween-80) 99 % of control; under setting [5], 96 % of control; under setting [6], 118 % of control; (dose: 400.0 mg/kg/injection, schedule: Q04DX003 (ip), vehicle: saline with Tween-80) 95 % of control.
As for `CCCC(C)(C)SSC(C)(C)CCC`, the T/C by setting is: under setting [7], 90 % of control; under setting [4], 90 % of control and 100 % of control; under setting [1], 95 % of control and 118 % of control; under setting [5], 90 % of control; under setting [6], 113 % of control.
Consider `Cc1nc2ccccc2nc1CC(O)(c1ccccc1)c1cccc2ccccc12` (stereo not given), for which the T/C under setting [4] was 94 % of control, the T/C under setting [1] is 95 % of control and the T/C under setting [2] is 97 % of control.
As to `CN(CC[N+]1(C)CCCC1)P(=O)(N1CCCC1)N1CCCC1`, the T/C reads like this: (dose: 50.0 mg/kg/injection, schedule: Q01DX009 (ip), vehicle: saline) 106 % of control; under setting [8], 101 % of control; under setting [9], 109 % of control.
For the compound `COc1ccc(C2C=C(c3ccc4c(c3)OCO4)Oc3c2c(=O)oc2ccccc32)cc1OC` (stereo not given), the T/C reads like this: (dose: 12.5 mg/kg/injection, schedule: Q01DX009 (ip), vehicle: water) 99 % of control; (dose: 25.0 mg/kg/injection, schedule: Q01DX009 (ip), vehicle: water) 94 % of control; (dose: 25.0 mg/kg/injection, schedule: Q04DX003 (ip), vehicle: water) 94 % of control; (dose: 50.0 mg/kg/injection, schedule: Q01DX009 (ip), vehicle: water) 94 % of control; (dose: 50.0 mg/kg/injection, schedule: Q04DX003 (ip), vehicle: water) 101 % of control; (dose: 100.0 mg/kg/injection, schedule: Q01DX009 (ip), vehicle: water) 99 % of control. Further, the T/C is, setting by setting: (dose: 100.0 mg/kg/injection, schedule: Q04DX003 (ip), vehicle: water) 97 % of control; (dose: 200.0 mg/kg/injection, schedule: Q01DX009 (ip), vehicle: water) 94 % of control; (dose: 200.0 mg/kg/injection, schedule: Q04DX003 (ip), vehicle: water) 110 % of control; (dose: 400.0 mg/kg/injection, schedule: Q04DX003 (ip), vehicle: water) 106 % of control.
Turning to `CCN(CC)C(=O)Cn1cc(F)c(N)nc1=O`, the T/C runs as follows: under setting [8], 95 % of control; (dose: 100.0 mg/kg/injection, schedule: Q04DX003 (ip), vehicle: saline) 110 % of control; under setting [9], 90 % of control; (dose: 200.0 mg/kg/injection, schedule: Q04DX003 (ip), vehicle: saline) 100 % of control; (dose: 400.0 mg/kg/injection, schedule: Q04DX003 (ip), vehicle: saline) 100 % of control.
Turning to `CCC1(O)CC2CN(CCc3c([nH]c4ccccc34)C(C(=O)OC)(c3cc4c(cc3OC)N(C)C3C(O)(C(N)=O)C(O)C5(CC)C=CCN6CCC43C65)C2)C1` (stereo not given) (tested in a mixture with another compound), the T/C was 188 % of control (dose: 0.65 mg/kg/injection, schedule: Q04DX003 (ip), vehicle: saline); 154 % of control (dose: 0.87 mg/kg/injection, schedule: Q04DX003 (ip), vehicle: saline); 223 % of control (dose: 1.08 mg/kg/injection, schedule: Q04DX003 (ip), vehicle: saline); 187 % of control (dose: 1.3 mg/kg/injection, schedule: Q04DX003 (ip), vehicle: saline); 238 % of control (dose: 1.8 mg/kg/injection, schedule: Q04DX003 (ip), vehicle: saline); 163 % of control (dose: 2.0 mg/kg/injection, schedule: Q04DX003 (ip), vehicle: saline). Besides, the T/C is 101 % of control (dose: 3.0 mg/kg/injection, schedule: Q04DX003 (ip), vehicle: saline); 175 % of control (dose: 500.0 micrograms/kg/injection, schedule: Q04DX003 (ip), vehicle: saline); 203 % of control (dose: 648.0 micrograms/kg/injection, schedule: Q04DX003 (ip), vehicle: saline); 250 % of control (dose: 1000.0 micrograms/kg/injection, schedule: Q04DX003 (ip), vehicle: saline); 237 % of control (dose: 1080.0 micrograms/kg/injection, schedule: Q04DX003 (ip), vehicle: saline); 237 % of control (dose: 1800.0 micrograms/kg/injection, schedule: Q04DX003 (ip), vehicle: saline). In addition, the T/C was 211 % of control (dose: 2000.0 micrograms/kg/injection, schedule: Q04DX003 (ip), vehicle: saline) and 96 % of control (dose: 4000.0 micrograms/kg/injection, schedule: Q04DX003 (ip), vehicle: saline).
As for `N/C(=N\[N+](=O)[O-])N(CCCCl)N=O`, the T/C under setting [7] was 103 % of control; the T/C (dose: 27.0 mg/kg/injection, schedule: Q01DX009 (ip), vehicle: Klucel (hydroxypropylcellulose) (HPC)) is 152 % of control; the T/C (dose: 33.0 mg/kg/injection, schedule: Q01DX009 (ip), vehicle: saline with Tween-80) was 108 % of control; the T/C (dose: 37.5 mg/kg/injection, schedule: Q04DX003 (ip), vehicle: saline sonified) is 100 % of control; the T/C (dose: 40.0 mg/kg/injection, schedule: Q01DX009 (ip), vehicle: Klucel (hydroxypropylcellulose) (HPC)) was 157 % of control; the T/C under setting [4] is 107 % of control. The T/C reads like this: (dose: 60.0 mg/kg/injection, schedule: Q01DX009 (ip), vehicle: Klucel (hydroxypropylcellulose) (HPC)) 166 % of control; (dose: 75.0 mg/kg/injection, schedule: Q04DX003 (ip), vehicle: saline sonified) 100 % of control; under setting [1], 120 % of control; under setting [5], 109 % of control; (dose: 112.5 mg/kg/injection, schedule: Q01DX009 (ip), vehicle: saline with Tween-80) 154 % of control; (dose: 150.0 mg/kg/injection, schedule: Q04DX003 (ip), vehicle: saline sonified) 100 % of control. For the same compound, the T/C by setting is: (dose: 176.0 mg/kg/injection, schedule: Q04DX003 (ip), vehicle: saline sonified) 100 % of control; under setting [6], 122 % of control.
With `COc1ccc2[nH]c3cc(Cl)ccc3c(=O)c2c1`, the T/C is, setting by setting: under setting [1], 100 % of control; under setting [2], 100 % of control; under setting [3], 90 % of control.
